Source: article PMC6348443 (Journal of Medicinal Chemistry, 2018)
Structures can show the parent of a compound that is named as a salt. Where two headings read alike, the source gives them in different places.

How the values were obtained:
MOR [1] = target: T1, MOR (Homo sapiens, UniProt P35372); test: [35S]GTPγS binding assay, CHO-hMOR membranes; type: biochemical; conditions: for Emax: read-out: MOR % stim.
T1 construct: host or cells: CHO (CHO-hMOR)
Method: (§1) Efficacies are presented as percentage stimulation relative to the standard full agonists, [D-Ala^2,N-Me-Phe4,Gly-ol^5]enkephalin (DAMGO for MOR),[53] [D-Pen^2,D-Pen^5]enkephalin (DPDPE for DOR)[54] and N-methyl-2-phenyl-N-[(5R,7S,8S)-7-(pyrrolidin-1-yl)-1-oxaspiro[4.5]dec-8-yl]acetamide (U69,593 for KOR).[55]
(§2) Membranes from CHO cells expressing human opioid receptors were prepared in 50 mM Tris-HCl buffer (pH 7.7) according to a previously described procedure.[64] Cells expressing human opioid receptors grown at confluence were removed from the culture plates by scraping, homogenized in 50 mM Tris buffer (pH 7.7), using a Polytron homogenizer, then centrifuged once and washed by an additional centrifugation at 27 000g for 15 min, at 4 °C. The final pellet was resuspended in Tris buffer and stored at −80 °C until use. Protein content of brain and cell membrane preparation homogenates was determined by the method of Bradford using bovine serum albumin as the standard.[65]
(§3) Binding of [^35S]GTPγS to membranes from CHO cells stably expressing the human opioid receptors was conducted according to the published procedures.[49],[64] Cell membranes (5–10 μg) in 20 mM HEPES, 10 mM MgCl2, and 100 mM NaCl (pH 7.4) were incubated with 0.05 nM [^35S]GTPγS, 10 μM GDP, and various concentrations of test compound in a final volume of 1 mL, for 60 min at 25 °C. Nonspecific binding was determined using 10 μM GTPγS, and the basal binding was determined in the absence of test ligand. Samples are filtered over glass Whatman glass GF/B fiber filters and counted as described for binding assays. All experiments were performed in duplicate and repeated at least three times.
(§4) Data were analyzed and graphically processed using the GraphPad Prism 5.0 Software (GraphPad Prism Software Inc., San Diego, CA). For in vitro assays, inhibition constant (Ki in nM), potency (EC50 in nM), and efficacy (% stimulation) values were determined from concentration–response curves by nonlinear regression analysis. The Ki values were determined by the method of Cheng and Prusoff.[66] In the [^35S]GTPγS binding assays, efficacy was determined relative to the reference full opioid agonists, DAMGO (MOR), DPDPE (DOR), and U69,593 (KOR). In vitro data are presented as mean ± SEM of three to four independent experiments each performed in duplicate. […] Each experimental group included six to seven mice. Data were statistically evaluated using one-way ANOVA with Tukey’s post hoc test for multiple comparisons with significance set at P < 0.05.

DOR [2] = target: T2, DOR (Homo sapiens, UniProt P41143); test: [35S]GTPγS binding assay, CHO-hDOR membranes; type: biochemical; conditions: for EC50: [35S]GTPγS, CHO human DOR membranes; for Emax: relative to reference full agonist DPDPE, read-out: DOR % stim.
T2 construct: host or cells: CHO (CHO-hDOR)
Method: as §1, §2, §3, §4

KOR [3] = target: T3, KOR (Homo sapiens, UniProt P41145); test: [35S]GTPγS binding assay, CHO-hKOR membranes; type: biochemical; conditions: for EC50: [35S]GTPγS, CHO human KOR membranes, read-out: KOR EC50; for functional profile at KOR (full/partial agonist): partial agonist <85% of the response to U69,593; for Emax: relative to reference full agonist U69,593, read-out: KOR % stim.
T3 construct: host or cells: CHO (CHO-hKOR)
Method: as §1, §2, §3, §4

male CD1 mice = test: acetic acid-induced writhing assay after sc administration; type: in vivo, mouse; conditions: for ED50: Mus musculus, 0.5 h, read-out: ED50 (95% CI), mice, sc, inhibition of writhing 30 min after drug administration; for increased antinociceptive potency vs comparator: writhing assay, 3a vs 3b, 4a vs 4b, 16b vs 7a (so in the source)
Method: Solutions of test compounds were prepared in sterile physiological 0.9% saline and further diluted to working doses in saline solution. Test compounds or saline (control) were administered by sc route in a volume of 10 μL/1 g of body weight. All doses are expressed in terms of salts. Separate groups of mice received the respective dose of compound, and individual mice were only used once for behavioral testing.
Writhing was induced in male CD1 mice by ip injection of a 0.6% acetic acid aqueous solution as described previously.[48],[62] Groups of mice were administered sc different doses of test compound or saline (control), and 5 min prior to testing (25 min after drug or saline), each animal received an ip injection of acetic acid solution. Each mouse was placed in individual transparent Plexiglas chambers, and the number of writhes was counted during a 10 min observation period. […] For the antagonism study, naloxone methiodide was sc co-administered with the respective opioid agonist, and writhing was assessed as described above.
as §4

DOR [4] = target: T2, DOR; test: competition radioligand binding, CHO cell membranes expressing human DOR, [3H]diprenorphine
Method: as §2
(§5) Rat brain membranes were incubated with either [^3H]DAMGO (1 nM, 45 min, 35 °C) or [^3H][Ile^5,6]deltorphin II (0.5 nM, 45 min, 35 °C) for labeling MOR or DOR receptors, respectively. Guinea-pig brain membranes were incubated with [^3H]U69,593 (1 nM, 30 min, 30 °C) for labeling KOR. Binding assays with CHO cell membranes were conducted at 25 °C for 60 min using [^3H]DAMGO (1 nM) or [^3H]diprenorphine (0.2 nM) for labeling MOR or DOR, respectively. Nonspecific binding was determined using 10 μM naloxone (rodent brain) or 1–10 μM of the unlabeled counterpart of each radioligand (CHO cells). Reactions were terminated by rapid filtration through Whatman glass fiber GF/C filters. Filters were washed three times with 5 mL of ice-cold 50 mM Tris-HCl buffer (pH 7.4) using a Brandel M24R cell harvester (Gaithersburg, MD). Radioactivity retained on the filters was counted by liquid scintillation counting using a Beckman Coulter LS6500 (Beckman Coulter Inc., Fullerton, CA). All binding experiments were performed in duplicate and repeated at least three times.
(§6) aDetermined in competition radioligand binding assays using CHO cell membranes expressing
(§7) human MOR and DOR. Values represent the mean ± SEM of three independent experiments each

MOR [5] = target: T1, MOR; test: competition radioligand binding, CHO cell membranes expressing human MOR, [3H]DAMGO
Method: as §2, §5, §6, §7

MOR [6] = target: T4, MOR (Rattus norvegicus, UniProt P33535); test: competition radioligand binding, rat brain membranes, [3H]DAMGO; conditions: for Ki: rat brain membranes, read-out: opioid receptor binding Ki MOR; for Ki ratio MOR/DOR/KOR: from Ki in rat (MOR, DOR) and guinea-pig (KOR) brain membranes
T4 construct: Membranes were prepared from Sprague-Dawley rat brains or guinea-pig brains according to the described procedures; tissue Labortierkunde und Laborgenetik, Medizinische Universität Wien; host or cells: Sprague-Dawley rat brain without cerebella
Method: (§8) Competition binding assays using rat brain (MOR and DOR) and guinea-pig brain (KOR) membranes (Table 1) were performed according to published procedures.[44],[49] […] In addition, we have assessed binding at the human opioid receptors stably transfected in Chinese hamster ovary (CHO) cells (Table S1).
(§9) Membranes were prepared from Sprague-Dawley rat brains or guinea-pig brains according to the described procedures.[44],[45] Brains without cerebella were homogenized on ice in 5 vol/wt of ice-cold 50 mM Tris-HCl buffer (pH 7.4) and diluted in 30 vol/wt of the same buffer. After centrifugation at 40 000g for 20 min at 4 °C, the pellets were resuspended in 30 vol/wt of 50 mM Tris-HCl buffer (pH 7.4) and incubated at 37 °C for 30 min. The centrifugation step described above was repeated, and the final pellets were resuspended in 5 vol/wt of 50 mM Tris-HCl buffer (pH 7.4) containing 0.32 M sucrose and stored at −80 °C until use.
as §5, §4

DOR [7] = target: T5, DOR (Rattus norvegicus, UniProt P33533); test: competition radioligand binding, rat brain membranes, [3H][Ile5,6]deltorphin II; conditions: rat brain membranes; read-out: opioid receptor binding Ki DOR
T5 construct: Membranes were prepared from Sprague-Dawley rat brains or guinea-pig brains according to the described procedures; tissue Labortierkunde und Laborgenetik, Medizinische Universität Wien; host or cells: Sprague-Dawley rat brain without cerebella
Method: as §8, §9, §5, §4

KOR [8] = target: T6, KOR (Cavia porcellus, UniProt P41144); test: competition radioligand binding, guinea-pig brain membranes, [3H]U69,593; conditions: guinea-pig brain membranes; read-out: opioid receptor binding Ki KOR
T6 construct: Membranes were prepared from Sprague-Dawley rat brains or guinea-pig brains according to the described procedures; tissue Labortierkunde und Laborgenetik, Medizinische Universität Wien; host or cells: guinea-pig brain without cerebella
Method: as §8, §9, §5, §4

[9] = relative to reference full agonist DAMGO
[10] = [35S]GTPγS, CHO human MOR membranes, read-out: MOR EC50

SMILES | Emax (MOR [1]; [9]) [%] | EC50 (DOR [2]) [nM] | Emax (DOR [2]) [%] | EC50 (KOR [3]) [nM] | functional profile at KOR (full/partial agonist) (KOR [3]) | Emax (KOR [3]) [%] | ED50 (male CD1 mice) [mg/kg] | Ki (DOR [4]) [nM] | EC50 (MOR [1]) [nM] | EC50 (MOR [1]; [10]) [nM] | increased antinociceptive potency vs comparator (male CD1 mice) [times] | Ki (MOR [5]) [nM] | Ki (MOR [6]) [nM] | increase in MOR binding affinity vs comparator (MOR [6]; rat brain, 17b vs 4b, 16a/b vs 7a/b, 22a/b vs 7a, 7b and 9b, 14a vs 14b) | Ki (DOR [7]) [nM] | Ki (KOR [8]) [nM] | functional profile at MOR (full/partial agonist) (MOR [1]; full agonist ≥85% of the response to DAMGO) | MOR % stim. (MOR [1]; [9]) [%] | ED50 (95% CI) (male CD1 mice; mice, inhibition of writhing 30 min after drug administration) | Ki ratio MOR/DOR/KOR (MOR [6])
CO[C@@]12CC[C@@H](N[C@@H](C)C(=O)O)[C@@H]3Oc4c(O)ccc5c4[C@@]31CCN(C)[C@@H]2C5 [Compound 3b] | 87 ± 6 | 5.2 ± 1.7 | 104 ± 6 | 392 ± 160 | partial agonist | 64 ± 9 | 0.0863 | 8.43 ± 2.1 |  |  |  |  |  |  |  |  |  |  |  | 
CO[C@@]12CC[C@H](N[C@@H](Cc3ccccc3)C(=O)O)[C@@H]3Oc4c(O)ccc5c4[C@@]31CCN(C)[C@@H]2C5 [Compound 4a] | 93 ± 8 | 0.39 ± 0.19 | 102 ± 2 | 219 ± 2 | partial agonist | 39 ± 12 | 0.0311 | 3.61 ± 1.2 | < 1 | 0.38 ± 0.19 | 19 | 0.81 ± 0.2 |  |  |  |  |  |  |  | 
CO[C@@]12CC[C@@H](N[C@@H](C(=O)O)C(C)C)[C@@H]3Oc4c(O)ccc5c4[C@@]31CCN(C)[C@@H]2C5 [Compound 16b] | 101 | 1.3 ± 0.64 | 99 ± 0.2 | 1280 ± 283 | full agonists | 98 ± 16 | < 0.02 |  |  | 2.38 ± 0.77 | 8 |  | 1.02 ± 0.07 | 2–3 times | 1.68 ± 0.16 | 159 ± 17 | full agonist | 101 ± 5 | 14.0 (5.90–33.3) μg/kg | 
CO[C@@]12CC[C@H](NCCC(=O)O)[C@@H]3Oc4c(O)ccc5c4[C@@]31CCN(C)[C@@H]2C5 [Compound 20a, 3-[(4,5α-Epoxy-3-hydroxy-14β-methoxy-17-methylmorphinan-6α-yl)amino]propionic Acid Dihydrochloride] | 99 ± 7 | 96.4 ± 8.7 | 97 ± 2 | 186 ± 15 |  | 78 ± 9 | 0.0312 |  |  | 3.52 ± 1.65 |  |  | 1.3 ± 0.08 |  | 60 ± 1.9 | 182 ± 8 |  |  |  | 1/46/140
CO[C@@]12CC[C@H](NCCCC(=O)O)[C@@H]3Oc4c(O)ccc5c4[C@@]31CCN(C)[C@@H]2C5 [Compound 21a] | 103 ± 4 | 34.4 ± 6.5 | 103 ± 1 | 2030 ± 253 |  | 104 ± 9 | 0.0419 |  |  | 2.88 ± 0.82 |  |  | 0.77 ± 0.07 |  | 12.5 ± 0.7 | 45.6 ± 4.4 |  |  |  | 1/16/59
